As a reminder, the IC50 is the concentration that gives 50% inhibition.

One experiment concerns the target human DHODH (Homo sapiens (Human), UniProt Q02127). In words: DHODH Enzymatic Assay. Format: biochemical. Particulars: purified human DHODH, DCIP absorbance, end-point mode; read-out: hDHODH IC50. As for the experimental part: The following assay is referred to herein as the “DHODH Enzymatic Assay.” To detect DHODH enzyme activities, dichloroindophenol (DCIP) is added as the final electron acceptor in the assay. DCIP can accept electrons from the reduced coenzyme Q generated in the assay, or from dihydroorotate (DHO) via FMN by binding presumably to the ubiquinone pocket. DCIP solutions are blue, with an intense absorbance around 600 nm, but becomes colorless upon reduction (J. Biol. Chem. (1986) 261, 11386). The assay buffer contained […], pH 7.5, 150 mM NaCl, 0.5 mM EDTA, and 0.1% Triton X-100 in MilliQ water. Substrate consisting of 20 mM DHO, 5 mM CoQ6, and 1 mM DCIP in assay buffer, initiates the reaction. The assay is run in end-point mode by quenching the reaction with the potent DHODH inhibitor brequinar. Absorbance measurements were obtained using the BMG Phera Star plate-reading spectrophotomer. Purified human DHODH was purchased from Proteros (cat. No. PR-0044). Chemicals were purchased from Sigma-Aldrich, Teknova, and Avanti Polar Lipids. Liquid handling was performed using Labcyte Echo and Formulatrix Tempest.

The subject of experiment [1] is MOLM-13 cells (human acute myeloid leukemia cells). In words: MOLM-13 Cellular Assay. Format: cell-based. Particulars: 72 hours exposure, cell viability by CellTiter-Glo. The protocol: The following assay is referred to herein as the “MOLM-13 Cellular Assay.” MOLM-13 cells (human acute myeloid leukemia cells) were obtained from DSMZ and were maintained in RPMI 1640+Glutamax+25 mM HEPES (Invitrogen, catalog number 72400) supplemented with 10% heat inactivated fetal bovine serum (FBS; Invitrogen, catalog number 16140). The day prior to assay set-up, cells were pelleted, resuspended in fresh media, counted, and cells were plated at 0.4×10^6 cell/mL in a T150 flask. On the day of the assay, cells were pelleted, resuspend in fresh media, counted and seeded at 5,000 cells/well in white opaque 96-well tissue culture treated microplates (Perkin Elmer, catalog number 6005680). Cells were exposed to different concentrations of test compounds at 37° C., 5% CO2 for 72 hours immediately after seeding. Cell viability was acquired on a Perkin Elmer Envision 2104 multilabel reader using the CellTiter-Glo assay (Promega) according to the manufacturer's instructions.
In general terms: In ATP-based viability assays light output follows the ATP content of the culture.

Sequence of human DHODH (Q02127 whole entry): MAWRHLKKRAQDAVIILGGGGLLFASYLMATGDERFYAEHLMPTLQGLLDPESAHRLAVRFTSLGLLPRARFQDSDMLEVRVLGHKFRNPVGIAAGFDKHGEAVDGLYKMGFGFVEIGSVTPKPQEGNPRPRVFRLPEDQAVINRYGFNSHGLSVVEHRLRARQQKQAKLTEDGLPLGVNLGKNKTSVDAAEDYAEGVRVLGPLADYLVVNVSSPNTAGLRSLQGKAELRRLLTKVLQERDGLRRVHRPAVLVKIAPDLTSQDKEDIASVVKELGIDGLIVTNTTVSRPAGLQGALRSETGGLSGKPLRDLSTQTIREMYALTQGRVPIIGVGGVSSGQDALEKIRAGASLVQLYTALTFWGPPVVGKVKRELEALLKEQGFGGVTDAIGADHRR

Consider `CCn1c(CO)nn(-c2cc3c(C(C)C)cn([C@@H]4CCC[C@@H]4C)c(=O)c3cc2F)c1=O` (stereo in doubt) [Example 125, 6-(4-Ethyl-3-(hydroxymethyl)-5-oxo-4,5-dihydro-1H-1,2,4-triazol-1-yl)-7-fluoro-4-isopropyl-2((1R*,2S*)-2-methylcyclopentyl)isoquinolin-1(2H)-one], for which the 50% inhibitory concentration (IC50) at human DHODH came to 15.5 nM; in experiment [1] (Homo sapiens, MOLM-13, 72 h) it was 6 nM.

For the compound `CCn1c(CO)nn(-c2cc3c(C(C)C)cn([C@H]4CCC[C@H]4C)c(=O)c3cc2F)c1=O` (stereo in doubt) [Example 126, 6-(4-Ethyl-3-(hydroxymethyl)-5-oxo-4,5-dihydro-1H-1,2,4-triazol-1-yl)-7-fluoro-4-isopropyl-2-((1S*,2R*)-2-methylcyclopentyl)isoquinolin-1(2H)-one], the IC50 on human DHODH came out at 1.32 nM; in experiment [1] (Homo sapiens, MOLM-13, 72 h), 1 nM.

For the compound `C=C(C)c1cn(-c2cccc(F)c2)c(=O)c2ccc(-n3nc(CO)n(CC)c3=O)cc12` [Example 1, 6-(4-Ethyl-3-(hydroxymethyl)-5-oxo-4,5-dihydro-1H-1,2,4-triazol-1-yl)-2-(3-fluorophenyl)-4-(prop-1-en-2-yl)isoquinolin-1(2H)-one], the IC50 worked out at 9.89 nM on human DHODH and 6 nM in experiment [1] (Homo sapiens, MOLM-13, 72 h).

For the compound `CCn1c(CO)nn(-c2ccc3c(=O)n(-c4cccc(F)c4)cc(C(C)C)c3c2)c1=O` [Example 2, 6-(4-Ethyl-3-(hydroxymethyl)-5-oxo-4,5-dihydro-1H-1,2,4-triazol-1-yl)-2-(3-fluorophenyl)-4-isopropylisoquinolin-1(2H)-one], the IC50 came to 75.9 nM on human DHODH and 40 nM in experiment [1] (Homo sapiens, MOLM-13, 72 h).

As for `CCn1c(CO)nn(-c2ccc3c(=O)n(-c4c(F)cccc4Cl)cc(C(C)C)c3c2)c1=O` [Example 3, 2-(2-Chloro-6-fluorophenyl)-6-(4-ethyl-3-(hydroxymethyl)-5-oxo-4,5-dihydro-1H-1,2,4-triazol-1-yl)-4-isopropylisoquinolin-1(2H)-one], the IC50 at human DHODH came out at 3.46 nM; in experiment [1] (Homo sapiens, MOLM-13, 72 h), 2 nM.

Regarding `CCn1c(CO)nn(-c2ccc3c(=O)n(-c4cccc(F)c4)cc(-c4ccccc4)c3c2)c1=O` [Example 4, 6-(4-Ethyl-3-(hydroxymethyl)-5-oxo-4,5-dihydro-1H-1,2,4-triazol-1-yl)-2-(3-fluorophenyl)-4-phenylisoquinolin-1(2H)-one], the IC50 came out at 177 nM at human DHODH and 100 nM in experiment [1] (Homo sapiens, MOLM-13, 72 h).

On to `C=C(C)c1cn(-c2c(F)cccc2Cl)c(=O)c2ccc(-n3nc(CO)n(CC)c3=O)cc12` [Example 5, 2-(2-Chloro-6-fluorophenyl)-6-(4-ethyl-3-(hydroxymethyl)-5-oxo-4,5-dihydro-1H-1,2,4-triazol-1-yl)-4-(prop-1-en-2-yl)isoquinolin-1(2H)-one], for which the IC50 at human DHODH amounted to 1.29 nM; in experiment [1] (Homo sapiens, MOLM-13, 72 h), 0.9 nM.

As for `C=C(c1cn(-c2c(F)cccc2Cl)c(=O)c2ccc(-n3nc(CO)n(CC)c3=O)cc12)C(F)(F)F` [Example 6, 2-(2-Chloro-6-fluorophenyl)-6-(4-ethyl-3-(hydroxymethyl)-5-oxo-4,5-dihydro-1H-1,2,4-triazol-1-yl)-4-(3,3,3-trifluoroprop-1-en-2-yl)isoquinolin-1(2H)-one], the IC50 on human DHODH stood at 1.94 nM; in experiment [1] (Homo sapiens, MOLM-13, 72 h) it was 1 nM.

`CCn1c(CO)nn(-c2ccc3c(=O)n(-c4c(Cl)cccc4Cl)cc(C4(C)CC4)c3c2)c1=O` [Example 7, 2-(2,6-Dichlorophenyl)-6-(4-ethyl-3-(hydroxymethyl)-5-oxo-4,5-dihydro-1H-1,2,4-triazol-1-yl)-4-(1-methylcyclopropyl)isoquinolin-1(2H)-one]: the IC50 on human DHODH is 0.965 nM; in experiment [1] (Homo sapiens, MOLM-13, 72 h), 2 nM.

On to `C=C(C)c1cn(-c2c(Cl)cccc2Cl)c(=O)c2ccc(-n3nc(CO)n(CC)c3=O)cc12` [Example 8, 2-(2,6-Dichlorophenyl)-6-(4-ethyl-3-(hydroxymethyl)-5-oxo-4,5-dihydro-1H-1,2,4-triazol-1-yl)-4-(prop-1-en-2-yl)isoquinolin-1(2H)-one], for which the IC50 on human DHODH came to 0.839 nM; in experiment [1] (Homo sapiens, MOLM-13, 72 h) it was 0.7 nM.

For `CCn1c(CO)nn(-c2ccc3c(=O)n(-c4c(F)cccc4Cl)cc(C4CC4)c3c2)c1=O` [Example 9, 2-(2-Chloro-6-fluorophenyl)-4-cyclopropyl-6-(4-ethyl-3-(hydroxymethyl)-5-oxo-4,5-dihydro-1H-1,2,4-triazol-1-yl)isoquinolin-1(2H)-one], the IC50 amounted to 11.5 nM on human DHODH and 5 nM in experiment [1] (Homo sapiens, MOLM-13, 72 h).

With `CCn1c(CO)nn(-c2ccc3c(=O)n(-c4c(F)cccc4Cl)ccc3c2)c1=O` [Example 10, 2-(2-Chloro-6-fluorophenyl)-6-(4-ethyl-3-(hydroxymethyl)-5-oxo-4,5-dihydro-1H-1,2,4-triazol-1-yl)isoquinolin-1(2H)-one], the IC50 is 344 nM on human DHODH and 100 nM in experiment [1] (Homo sapiens, MOLM-13, 72 h).

For `CCn1c(CO)nn(-c2cc3c(C(C)C)cn(-c4c(F)cccc4Cl)c(=O)c3cc2F)c1=O` [Example 11, 2-(2-Chloro-6-fluorophenyl)-6-(4-ethyl-3-(hydroxymethyl)-5-oxo-4,5-dihydro-1H-1,2,4-triazol-1-yl)-7-fluoro-4-isopropylisoquinolin-1(2H)-one], the IC50 was 0.222 nM at human DHODH; 0.2 nM in experiment [1]; ≤ 0.2 nM in experiment [1] (Homo sapiens, MOLM-13, 72 h).

Turning to `C=C(C)c1cn(-c2ccccc2C(F)(F)F)c(=O)c2ccc(-n3nc(CO)n(CC)c3=O)cc12` [Example 12, 6-(4-Ethyl-3-(hydroxymethyl)-5-oxo-4,5-dihydro-1H-1,2,4-triazol-1-yl)-4-(prop-1-en-2-yl)-2-(2-(trifluoromethyl)phenyl)isoquinolin-1(2H)-one], the IC50 at human DHODH stood at 2.29 nM; in experiment [1] (Homo sapiens, MOLM-13, 72 h) it was 2 nM.

With `C=C(C)c1cn(-c2ccccc2C#N)c(=O)c2ccc(-n3nc(CO)n(CC)c3=O)cc12` [Example 13, 2-(6-(4-Ethyl-3-(hydroxymethyl)-5-oxo-4,5-dihydro-1H-1,2,4-triazol-1-yl)-1-oxo-4-(prop-1-en-2-yl)isoquinolin-2(1H)-yl)benzonitrile], the IC50 stood at 5.49 nM at human DHODH and 6 nM in experiment [1] (Homo sapiens, MOLM-13, 72 h).

With `C=C(C)c1cn(-c2ccccc2Cl)c(=O)c2ccc(-n3nc(CO)n(CC)c3=O)cc12` [Example 14, 2-(2-Chlorophenyl)-6-(4-ethyl-3-(hydroxymethyl)-5-oxo-4,5-dihydro-1H-1,2,4-triazol-1-yl)-4-(prop-1-en-2-yl)isoquinolin-1(2H)-one], the IC50 on human DHODH was determined as 0.724 nM; in experiment [1] (Homo sapiens, MOLM-13, 72 h), 0.4 nM.

For the compound `C=C(C)c1cn(-c2ccccc2C)c(=O)c2ccc(-n3nc(CO)n(CC)c3=O)cc12` [Example 15, 6-(4-Ethyl-3-(hydroxymethyl)-5-oxo-4,5-dihydro-1H-1,2,4-triazol-1-yl)-4-(prop-1-en-2-yl)-2-(o-tolyl)isoquinolin-1(2H)-one], the IC50 on human DHODH worked out at 0.634 nM; in experiment [1] (Homo sapiens, MOLM-13, 72 h), 0.4 nM.

Consider `CCn1c(CO)nn(-c2ccc3c(=O)n(-c4ccc([N+](=O)[O-])cc4F)cc(I)c3c2)c1=O` [Example 16, 6-(4-Ethyl-3-(hydroxymethyl)-5-oxo-4,5-dihydro-1H-1,2,4-triazol-1-yl)-2-(2-fluoro-4-nitrophenyl)-4-iodoisoquinolin-1(2H)-one], for which the IC50 at human DHODH is 1180 nM; in experiment [1] (Homo sapiens, MOLM-13, 72 h), 300 nM.

For `CCn1c(CO)nn(-c2ccc3c(=O)n(-c4ccccc4Cl)nc(C(C)C)c3c2)c1=O` [Example 17, 2-(2-Chlorophenyl)-6-(4-ethyl-3-(hydroxymethyl)-5-oxo-4,5-dihydro-1H-1,2,4-triazol-1-yl)-4-isopropylphthalazin-1(2H)-one], the IC50 on human DHODH is 3.21 nM; in experiment [1] (Homo sapiens, MOLM-13, 72 h), 3 nM.

The record behind these values is US11505536B2, “Dihydroorotate dehydrogenase inhibitors” (Janssen Biotech, Inc., priority 2019, dated 2022).
